Assay results as given in patent US9181218B2, “Compounds for improved stem cell differentiation into hepatocytes” (Hoffmann-La Roche Inc., priority 2013, dated 2015).

Test system: interferon-stimulated genes (ISGs)
Experiment: Microarray analysis of iCell Hepatocytes treated with the compound of example 1
Format: cell-based, Human
Source text: iCell Hepatocytes treated with the compound of example 1 results in the up and down-regulation of a host of genes; including a kinetic effect on interferon-stimulated gene (ISGs) expression. See FIGS. 15-I and 15-II, 16-I and 16-II and 18 and Table 1.

O=C(NCc1cccc(F)c1)c1cccc2nc(-c3c(NC[C@@H](O)c4ccccc4)cc[nH]c3=O)[nH]c12 [Example 1, 2-[4-((S)-2-hydroxy-2-phenyl-ethylamino)-2-oxo-1,2-dihydro-pyridin-3-yl]-3H-benzoimidazole-4-carboxylic acid 3-fluoro-benzylamide]
JAK2 Raw Est Fold Change (DAY 7): 1.39
JUNB Raw Est Fold Change (DAY 7): −8.16
KIAA0040 Raw Est Fold Change (DAY 7): −1.76
KIF5C Raw Est Fold Change (DAY 7): −4.32
KPNB1 Raw Est Fold Change (DAY 7): −1.34
LRP4 Raw Est Fold Change (DAY 7): −2.80
LTBP2 Raw Est Fold Change (DAY 7): −2.94
LYN Raw Est Fold Change (DAY 7): −1.71
MAFB Raw Est Fold Change (DAY 7): 6.31
MAFK Raw Est Fold Change (DAY 7): −1.70
MAP3K8 Raw Est Fold Change (DAY 7): −6.22
MAX Raw Est Fold Change (DAY 7): −1.95
MCL1 Raw Est Fold Change (DAY 7): −1.33
MSR1 Raw Est Fold Change (DAY 7): 16.00
MT1F Raw Est Fold Change (DAY 7): 2.56
MTHFD2L Raw Est Fold Change (DAY 7): −5.12
MTMR1 Raw Est Fold Change (DAY 7): −1.20
MYC Raw Est Fold Change (DAY 7): −7.27
MYD88 Raw Est Fold Change (DAY 7): 1.19
MYOM2 Raw Est Fold Change (DAY 7): 1.59
MYT1 Raw Est Fold Change (DAY 7): −3.88
NEXN Raw Est Fold Change (DAY 7): −2.35
NFE2 Raw Est Fold Change (DAY 7): −5.79
NFIL3 Raw Est Fold Change (DAY 7): −1.60
NGFB Raw Est Fold Change (DAY 7): 1.97
NLRC5 Raw Est Fold Change (DAY 7): −3.27
NMI Raw Est Fold Change (DAY 7): 1.34
NPAS2 Raw Est Fold Change (DAY 7): −4.43
OPTN Raw Est Fold Change (DAY 7): 1.28
PADI2 Raw Est Fold Change (DAY 7): 4.13
PARP14 Raw Est Fold Change (DAY 7): 1.33
PCK2 Raw Est Fold Change (DAY 7): 8.00
PCMT1 Raw Est Fold Change (DAY 7): −1.45
PCTK3 Raw Est Fold Change (DAY 7): 2.27
PDGFRL Raw Est Fold Change (DAY 7): −3.16
PEX26 Raw Est Fold Change (DAY 7): 1.38
PHF11 Raw Est Fold Change (DAY 7): −2.75
PHF15 Raw Est Fold Change (DAY 7): −1.69
PHLDA1 Raw Est Fold Change (DAY 7): −9.08
PI4K2B Raw Est Fold Change (DAY 7): 1.41
PIM3 Raw Est Fold Change (DAY 7): −2.64
PLAC8 Raw Est Fold Change (DAY 7): 5.43
PLAUR Raw Est Fold Change (DAY 7): −2.56
PLSCR1 Raw Est Fold Change (DAY 7): −2.59
PML Raw Est Fold Change (DAY 7): −2.58
PON1 Raw Est Fold Change (DAY 7): 5.18
PON2 Raw Est Fold Change (DAY 7): −1.39
PPIC Raw Est Fold Change (DAY 7): −2.26
PSMB10 Raw Est Fold Change (DAY 7): 1.91
PTEN Raw Est Fold Change (DAY 7): −1.44
PUS1 Raw Est Fold Change (DAY 7): −1.41
PXK Raw Est Fold Change (DAY 7): −1.23
RAB27A Raw Est Fold Change (DAY 7): −5.10
RAN Raw Est Fold Change (DAY 7): −1.29
RBMS1 Raw Est Fold Change (DAY 7): −3.48
RECQL Raw Est Fold Change (DAY 7): −1.66
RIPK2 Raw Est Fold Change (DAY 7): −1.45
RPL22 Raw Est Fold Change (DAY 7): 3.02
RSAD2 Raw Est Fold Change (DAY 7): 5.52
RXRA Raw Est Fold Change (DAY 7): 1.28
SAA1 Raw Est Fold Change (DAY 7): −1.51
SAMD9L Raw Est Fold Change (DAY 7): 2.42
SCARB2 Raw Est Fold Change (DAY 7): 1.64
SDC2 Raw Est Fold Change (DAY 7): 1.66
SELL Raw Est Fold Change (DAY 7): 3.83
SELP Raw Est Fold Change (DAY 7): 5.95
SERPINB9 Raw Est Fold Change (DAY 7): −1.86
SF3A1 Raw Est Fold Change (DAY 7): 1.26
SFPQ Raw Est Fold Change (DAY 7): −1.57
SHMT2 Raw Est Fold Change (DAY 7): 1.44
SLC7A5 Raw Est Fold Change (DAY 7): 1.78
SLC10A1 Raw Est Fold Change (DAY 7): 10.61
SLC15A2 Raw Est Fold Change (DAY 7): −1.52
SLC20A1 Raw Est Fold Change (DAY 7): 1.90
SLC25A28 Raw Est Fold Change (DAY 7): −1.47
SLC30A1 Raw Est Fold Change (DAY 7): 2.66
SLFN12 Raw Est Fold Change (DAY 7): −1.92
SOAT2 Raw Est Fold Change (DAY 7): 11.97
SOCS1 Raw Est Fold Change (DAY 7): −42.96
SOCS3 Raw Est Fold Change (DAY 7): −17.74
SPSB1 Raw Est Fold Change (DAY 7): −2.63
SPTLC2 Raw Est Fold Change (DAY 7): −1.49
SRGAP2 Raw Est Fold Change (DAY 7): 1.95
SSBP3 Raw Est Fold Change (DAY 7): 1.49
SSR1 Raw Est Fold Change (DAY 7): −1.71
STAT1 Raw Est Fold Change (DAY 7): −4.03
STEAP4 Raw Est Fold Change (DAY 7): −1275.83
STK39 Raw Est Fold Change (DAY 7): −1.88
TAP1 Raw Est Fold Change (DAY 7): −1.72
TAP2 Raw Est Fold Change (DAY 7): −2.02
TARBP1 Raw Est Fold Change (DAY 7): −1.18
TCF7L2 Raw Est Fold Change (DAY 7): −1.57
TEAD4 Raw Est Fold Change (DAY 7): −6.47
TFDP2 Raw Est Fold Change (DAY 7): 1.26
TFEC Raw Est Fold Change (DAY 7): 7.83
TFPI Raw Est Fold Change (DAY 7): −1.80
THBD Raw Est Fold Change (DAY 7): −6.70
TIMP1 Raw Est Fold Change (DAY 7): −11.92
TMEM2 Raw Est Fold Change (DAY 7): −3.07
TMEM49 Raw Est Fold Change (DAY 7): −1.98
TNFSF14 Raw Est Fold Change (DAY 7): −2.68
TOR1B Raw Est Fold Change (DAY 7): −1.39
TPM1 Raw Est Fold Change (DAY 7): 1.77
TRIB3 Raw Est Fold Change (DAY 7): 1.84
TRIM14 Raw Est Fold Change (DAY 7): 1.68
TXNIP Raw Est Fold Change (DAY 7): −7.72
UBE1L Raw Est Fold Change (DAY 7): 1.65
UBE2S Raw Est Fold Change (DAY 7): −1.95
ULK4 Raw Est Fold Change (DAY 7): −4.12
UPP2 Raw Est Fold Change (DAY 7): 16.78
USP25 Raw Est Fold Change (DAY 7): 1.84
WARS Raw Est Fold Change (DAY 7): −1.50
WAS Raw Est Fold Change (DAY 7): 3.44
XRCC6BP1 Raw Est Fold Change (DAY 7): 1.33
ZC3HAV1 Raw Est Fold Change (DAY 7): −1.57
ZNF24 Raw Est Fold Change (DAY 7): −1.16
ZNF276 Raw Est Fold Change (DAY 7): 1.44
ZNF313 Raw Est Fold Change (DAY 7): 1.31
interferon-stimulated genes (ISGs) expression (microarray heat map, FIG. 15): down-regulated interferon-stimulated genes (ISGs) as early as 2 hr
CREB3L1 expression (microarray, FIG. 15): down-regulated as early as 2 hr post treatment
SLC10A1 expression (microarray, FIG. 15): up-regulated at 7 day post-treatment
